One test concerns H3K9me2 in HCT116 cells. In words: HCT116 H3K9me2 in-cell western assay. The note with it: Homo sapiens, HCT-116, 72 h, HCT116 cells, 72 hours incubation; read-out: H3K9me2 ICW IC50. The format is cell-based. The source says:
HCT116 cell line was purchased from ATCC (Manassas, VA, USA). […] Penicillin-Streptomycin and heat inactivated fetal bovine serum were purchased from Hyclone (Logan, UT, USA). DPBS, Corning^R were purchased from VWR (Radnor, PA, USA). Triton′ X-100 was purchased from Sigma (St. Louis, MO, USA). Intercept blocking buffer, DRAQ5, Licor Odyssey Infrared Scanner were purchased from Licor Biosciences (Lincoln, NB, USA). Plate washer was purchased from BioTek (Winooski, VT, USA). […] 16% Paraformaldehyde was purchased from Electron Microscopy Sciences (Hatfield, PA, USA). HCT116 cells were maintained in complete growth medium (RPMI supplemented with 10% heat inactivated fetal bovine serum, 1% Penicillin-Streptomycin) and cultured at 37° C. under 5% CO2. N^2-(4-methoxy-3-(3-(pyrrolidin-1-yl)propoxy)phenyl)-N^4,6-dimethyl]pyrimidine-2,4-diamine (synthesis disclosed in International Application WO2017181177A1) was used as a control compound.
HCT116 cells (ATCC) were trypsinized, counted and seeded in assay medium (RPMI supplemented with 10% heat inactivated fetal bovine serum, 1% Penicillin-Streptomycin) at a concentration of 2,000 cells per well to a 384-well cell culture plate with compounds in 50 μl per well. Plates were incubated with at 37° C. under 5% CO2 for 72 hours. After the incubation, 50 μl per well of 8% paraformaldehyde in PBS was added to the plates and incubated at room temperature for 20 minutes. Plates were transferred to a BioTek (EL406) plate washer and washed 5 times with 110 μl per well of wash buffer (1×PBS containing 0.1% Triton X-100). The plates were next blocked with 50 μl of Intercept blocking buffer for 1 hour at room temperature. Blocking buffer was removed and 30 μl per well of monoclonal primary antibody of H3K9me2 (CST) diluted 1:200 in Intercept blocking buffer were added and plates were incubated overnight at 4° C. The plates were then washed 5 times with 110 μl per well of wash buffer (1×PBS containing 0.1% Triton X-100). Next 30 μl per well of secondary was added (1:400 800 CW goat anti-rabbit IgG in blocking buffer) with 1:1000 DRAQ5 in blocking buffer and incubated for 2 hours at room temperature. The plates were washed 5 times with 110 μl per well of wash buffer (1×PBS containing 0.1% Triton X-100) then with 100 μl per well of water once. Plates were allowed to dry at room temperature then imaged on a Licor Odyssey Infrared Scanner which measured integrated intensity at 700 nm and 800 nm wavelength. Both 700 and 800 channels were scanned.
The average of the ratio values (800 nm/700 nm) for each well was calculated and used to determine the percentage for each test well in the plate. Compounds were serially diluted two-fold in 0.1% DMSO for a total of 10 test concentrations beginning at 10 μM. IC50 curves were generated using duplicate wells per concentration of compound. […] IC50 values were calculated using a non-linear regression of Prism.

The target of a further test is T1, human EHMT1 982-1266 (Homo sapiens, UniProt Q9H9B1).
T1 sequence (Q9H9B1 982-1266): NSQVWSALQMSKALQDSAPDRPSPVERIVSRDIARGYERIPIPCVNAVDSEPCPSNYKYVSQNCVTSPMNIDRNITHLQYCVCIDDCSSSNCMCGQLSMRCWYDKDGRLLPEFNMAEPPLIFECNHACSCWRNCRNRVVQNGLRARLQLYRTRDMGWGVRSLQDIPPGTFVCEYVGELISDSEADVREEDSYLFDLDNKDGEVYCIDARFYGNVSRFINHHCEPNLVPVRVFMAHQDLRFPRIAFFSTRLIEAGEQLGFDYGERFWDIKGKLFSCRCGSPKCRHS
In words: EHMT1 enzyme assay on histone peptide substrate (3H-SAM SPA). The note with it: EHMT1 IC50, recombinant human EHMT1 982-1266, histone peptide substrate.

Another test concerns the target T2, human EHMT2 913-1193 (Homo sapiens, UniProt Q96KQ7).
T2 sequence (Q96KQ7 913-1193): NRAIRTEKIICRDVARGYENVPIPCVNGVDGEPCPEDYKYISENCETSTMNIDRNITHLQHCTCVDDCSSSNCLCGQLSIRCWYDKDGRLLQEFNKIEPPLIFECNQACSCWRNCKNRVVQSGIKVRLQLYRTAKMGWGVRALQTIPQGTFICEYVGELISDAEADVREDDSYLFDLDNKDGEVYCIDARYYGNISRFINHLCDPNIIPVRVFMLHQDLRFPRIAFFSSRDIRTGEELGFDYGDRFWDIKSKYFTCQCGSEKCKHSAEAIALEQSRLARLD
In words: EHMT2 enzyme assay on histone peptide substrate (3H-SAM SPA). As to conditions: EHMT2 IC50, recombinant human EHMT2 913-1193, histone peptide substrate.

Experimental findings from US20240368139A1, “NOVEL MODULATORS OF EHMT1 AND EHMT2 AND THERAPEUTIC USE THEREOF” (Tango Therapeutics, Inc., priority 2021, published 2024) are described below.

By IC50 is commonly meant the concentration needed to halve the response being measured.

Consider `CNc1cc(C)nc(Nc2cc3c(c(C4=C[C@H]5CNC[C@H]5C4)c2)OCC3)n1` (racemic) [Compound 133, N2-[7-(1,2,3,3a,6,6a-hexahydrocyclopenta [c]pyrrol-5-yl)-2,3-dihydrobenzofuran-5-yl]-N4,6-dimethyl-pyrimidine-2,4-diamine], for which the IC50 with H3K9me2 in HCT116 cells is 500 to 2000 nM; at human EHMT1 982-1266 it was 100 to 500 nM; at human EHMT2 913-1193, 500 to 2000 nM.

For the molecule `CNc1cc(C)nc(Nc2cc3c(c(C4=C[C@H]5CNC[C@H]5C4)c2)OC(F)(F)O3)n1` (racemic) [Compound 143, N2-[7-(1,2,3,3a,6,6a-hexahydrocyclopenta[c]pyrrol-5-yl)-2,2-difluoro-1,3-benzodioxol-5-yl]-N4,6-dimethyl-pyrimidine-2,4-diamine], the IC50 in the test with H3K9me2 in HCT116 cells was greater than 2000 nM; at human EHMT1 982-1266, 100 to 500 nM; on human EHMT2 913-1193, greater than 2000 nM.

Take `CNc1cc(C)nc(Nc2cc3c(c(C4=C[C@@H]5CNC[C@@H]5C4)c2F)OCC3)n1` (racemic) [Compound 359, N2-[7-(1,2,3,3a,6,6a-hexahydrocyclopenta[c]pyrrol-5-yl)-6-fluoro-2,3-dihydrobenzofuran-5-yl]-N4,6-dimethyl-pyrimidine-2,4-diamine]: the IC50 in the test on H3K9me2 in HCT116 cells was 100 to 500 nM; at human EHMT1 982-1266, less than 100 nM; at human EHMT2 913-1193 it was 100 to 500 nM.

Turning to `CNc1cc(C)nc(Nc2cc3c(c(C4=CCN(C)CC(O)C4)c2F)OCC3)n1` (single isomer, unassigned) [Compound 352], the IC50 in the test with H3K9me2 in HCT116 cells, on human EHMT1 982-1266 and at human EHMT2 913-1193 was less than 100 nM in each case.

As for `CNc1cc(C)nc(Nc2cc3c(c(C4=CCNCC(O)C4)c2C)OCCC3)n1` (single isomer, unassigned) [Compound 355], the IC50 with H3K9me2 in HCT116 cells, on human EHMT1 982-1266 and on human EHMT2 913-1193 was less than 100 nM each time.

Turning to `CNc1cc(C)nc(Nc2cc3c(c(C4=CCNCC(O)C4)c2C)OCC3)n1` (single isomer, unassigned) [Compound 358], the IC50 in the test with H3K9me2 in HCT116 cells, on human EHMT1 982-1266 and on human EHMT2 913-1193 was 100 to 500 nM in each case.

Regarding `CNc1cc(C)nc(Nc2cc3c(c(C4=CCN(C)CC(O)C4)c2C)OCC3)n1` (single isomer, unassigned) [Compound 375], the IC50 with H3K9me2 in HCT116 cells was 100 to 500 nM; at human EHMT1 982-1266, 100 to 500 nM; at human EHMT2 913-1193, 500 to 2000 nM.

Regarding `CNc1cc(C)nc(Nc2cc3c(c(C4=CCNCC(O)C4)c2Cl)OCC3)n1` (single isomer, unassigned) [Compound 376], the IC50 with H3K9me2 in HCT116 cells is less than 100 nM; at human EHMT1 982-1266 it was less than 100 nM; on human EHMT2 913-1193 it was 100 to 500 nM.

For `CNc1cc(C)nc(Nc2cc3c(c(C4=CCNC(C)CC4)c2C)OCC3)n1` (single isomer, unassigned) [Compound 383], the IC50 in the test with H3K9me2 in HCT116 cells, at human EHMT1 982-1266 and on human EHMT2 913-1193 was less than 100 nM each time.

Take `CNc1cc(C)nc(Nc2cc3c(c(C4=CCN(C)CC(O)C4)c2Cl)OCCC3)n1` (single isomer, unassigned) [Compound 402]: in the test with H3K9me2 in HCT116 cells, the IC50 is less than 100 nM.

Regarding `CNc1cc(C)nc(Nc2cc3c(c(C4=CCN(C)CCC4)c2F)OCCC3C)n1` (single isomer, unassigned) [Compound 406], the IC50 with H3K9me2 in HCT116 cells was in the range of 100 to 500 nM.

On to `CNc1cc(C)nc(Nc2cc3c(c(C4=CCNCC(O)C4)c2Cl)OCCC3)n1` (single isomer, unassigned) [Compound 407], for which the IC50 in the test with H3K9me2 in HCT116 cells was less than 100 nM.

As for `CNc1cc(C)nc(Nc2cc3c(c(C4=CCNCCC4)c2F)OCCC3C)n1` (single isomer, unassigned) [Compound 414], the IC50 in the test with H3K9me2 in HCT116 cells was less than 100 nM.

With `CNc1cc(C)nc(Nc2cc3c(c(C4=CCNCCC4)c2F)OCC[C@@H]3C)n1` (single isomer, unassigned) [Compound 415], the IC50 in the test with H3K9me2 in HCT116 cells is less than 100 nM.

For `CNc1cc(C)nc(Nc2cc3c(c(C4=CCNCC(O)C4)c2F)OCO3)n1` (single isomer, unassigned) [Compound 428], the IC50 in the test with H3K9me2 in HCT116 cells, at human EHMT1 982-1266 and at human EHMT2 913-1193 was less than 100 nM each time.

Take `CNc1cc(C)nc(Nc2cc3c(c(C4=CCC(N)CC4)c2F)OCC3)n1` (single isomer, unassigned) [Compound 435]: the figures for the IC50 in the test with H3K9me2 in HCT116 cells, at human EHMT1 982-1266 and at human EHMT2 913-1193 were less than 100 nM, less than 100 nM and 100 to 500 nM, respectively.

As to `CNc1cc(C)nc(Nc2cc3c(c(C4=CCNC[C@H](O)C4)c2F)OC[C@H]3C)n1` (stereo in doubt) [Compound 398, rel-(3R)-5-[rel-(3S)-6-fluoro-3-methyl-5-[[4-methyl-6-(methylamino)pyrimidin-2-yl]amino]-2,3-dihydrobenzofuran-7-yl]-2,3,4,7-tetrahydro-1H-azepin-3-ol], the IC50 is less than 100 nM in the test on H3K9me2 in HCT116 cells, less than 100 nM at human EHMT1 982-1266 and 100 to 500 nM on human EHMT2 913-1193.

In the case of `CNc1cc(C)nc(Nc2cc3c(c(C4=CCNC[C@H](O)C4)c2F)OC[C@@H]3C)n1` (stereo in doubt) [Compound 401, rel-(3R)-5-[rel-(3R)-6-fluoro-3-methyl-5-[[4-methyl-6-(methylamino)pyrimidin-2-yl]amino]-2,3-dihydrobenzofuran-7-yl]-2,3,4,7-tetrahydro-1H-azepin-3-ol], the IC50 is less than 100 nM in the test with H3K9me2 in HCT116 cells, less than 100 nM on human EHMT1 982-1266 and 100 to 500 nM on human EHMT2 913-1193.

With `CNc1cc(C)nc(Nc2cc3c(c(C4=CCNC[C@@H](O)C4)c2F)OC[C@H]3C)n1` (stereo in doubt) [Compound 420, rel-(3S)-5-[rel-(3S)-6-fluoro-3-methyl-5-[[4-methyl-6-(methylamino)pyrimidin-2-yl]amino]-2,3-dihydrobenzofuran-7-yl]-2,3,4,7-tetrahydro-1H-azepin-3-ol], the IC50 in the test on H3K9me2 in HCT116 cells, at human EHMT1 982-1266 and on human EHMT2 913-1193 was less than 100 nM each time.

Consider `CNc1cc(C)nc(Nc2cc3c(c(C4=CCNC[C@@H](O)C4)c2F)OC[C@@H]3C)n1` (stereo in doubt) [Compound 422, rel-(3S)-5-[rel-(3R)-6-fluoro-3-methyl-5-[[4-methyl-6-(methylamino)pyrimidin-2-yl]amino]-2,3-dihydrobenzofuran-7-yl]-2,3,4,7-tetrahydro-1H-azepin-3-ol], for which the IC50 in the test with H3K9me2 in HCT116 cells, on human EHMT1 982-1266 and at human EHMT2 913-1193 was less than 100 nM each time.

As for `Cc1cc(N(C)C)nc(Nc2cc3c(c(C4=CCNCCC4)c2)OCC3)n1` [Compound 138], the IC50 with H3K9me2 in HCT116 cells was 100 to 500 nM.

Consider `Cc1cc(N(C)C)nc(Nc2cc3c(c(C4=CCN(C)CCC4)c2)OCC3)n1` [Compound 139], for which the IC50 in the test with H3K9me2 in HCT116 cells is 500 to 2000 nM.

Take `CNc1cc(C)nc(Nc2cc3c(c(C4=CCNC(C)CC4)c2F)OCC3)n1` (stereo not shown) [Compound 202]: the IC50 in the test with H3K9me2 in HCT116 cells is less than 100 nM.

Take `[2H]Cc1cc(NC([2H])([2H])[2H])nc(Nc2cc3c(c(C4=CCNCCC4)c2F)OCC3)n1` [Compound 249]: the IC50 in the test on H3K9me2 in HCT116 cells is less than 100 nM.

Consider `[2H]C([2H])([2H])Nc1cc(C)nc(Nc2cc3c(c(C4=CCNCCC4)c2F)OCC3)n1` [Compound 253], for which the IC50 in the test with H3K9me2 in HCT116 cells was less than 100 nM.
